From a melting point compilation (Tetko et al.; mined from patent text by program, amines drawn as free bases though some values may be those of a salt)

SMILES	melting point [°C]
CC(O)c1ccc(-c2ccc(C(=O)OCc3ccccc3)cc2)cc1 (single isomer, unassigned; (+))	104 to 106
C[C@@H]1[C@H](NC(=O)C(=O)c2csc(N)n2)C(=O)N1S(=O)(=O)O	> 300
Cc1cc(NS(C)(=O)=O)cc(C)c1S(=O)(=O)C[N+](=O)[O-]	138 to 140
Cc1nc(Cl)c([N+](=O)[O-])c(NC(C)C)n1	77 to 79
Cc1csc2ccc3[nH]c4c(c3c12)CN(C(C)C)CC4	199 to 203
COc1cc(C(=O)NNC(=N)N)c(OC)cc1C	193
Cc1ccsc1-c1nc2cc([N+](=O)[O-])ccc2o1	174 to 176
CC(=O)N1c2c(ccn3c(C)c(C)nc23)C(=O)[C@H](OC(=O)C(C)(C)C)[C@H]1c1ccccc1	168 to 170
Clc1ccc(C2CCNCC2)cc1	143
O=[N+]([O-])c1ccc(-c2oncc2CO)cc1	170 to 171
CCOCN1C(C)=C(C(=O)O)[C@H](c2cccc([N+](=O)[O-])c2)C(C(=O)OCOC(=O)C(C)(C)C)=C1C	85 to 86
Cn1cc(C(=O)NCc2ccc(Cl)cc2)c(=O)c2cccc(C#CCO)c21	228 to 230
CCCCCCCNC(=O)N(C)c1cccc(-c2ccc(C=C(C)C(=O)O)cc2OCCCC)c1	70 to 72
O=C(NCc1c[nH]c(=S)n1[C@H]1CCc2c(F)cc(F)cc2C1)c1cccnc1	218 to 221
COc1ccc(C(O)C(C)=CC(=O)O)c(C(C)C)c1OC (stereo not drawn)	154 to 155
COc1ccc2c(c1)C(CC(=O)O)=C(C)C2=Cc1ccc(SC)cc1	195 to 196
O=C1C(I)=CC2COC1O2 (stereo not drawn)	66 to 67
Cn1ncc(C(=O)O)c1C(=O)Nc1ccn2nc(-c3cccc(F)c3)nc2c1	> 260
COc1ccc(C(CSc2ccccc2N)C(=O)O)cc1OC (stereo not drawn)	162
O=C(NCCCCOc1ccc(-n2ccnc2)cc1)c1cccc2ccccc12	157 to 159
CN1CCC(C(=O)CCc2ccccc2O)CC1	99 to 101
O=C(NCc1ccc(Cl)cc1)c1cnc2c(F)cc(-c3cc(Br)cs3)cc2c1O	281 to 283
CCNC1CCc2[nH]c3ccc(OCc4ccccc4)cc3c2C1 (stereo not drawn)	117 to 118
Nc1ncncc1Oc1ccccc1	118 to 120
CC(=O)N[C@H](C(=O)N1C[C@@H]2C(=O)CCC(c3ccccc3)(c3ccccc3)[C@@H]2C1)c1ccccc1	190

SMILES	melting point [°C]
CCC(=O)N(CC)c1cccc(-c2ccc(Cl)nn2)c1	118 to 119
COc1ccc(-c2nnc(N3CCN(C)CC3)nc2-c2ccc(OC)cc2)cc1	158 to 160
Cc1cc(Oc2c(Cl)cc(C(F)(F)F)cc2Cl)nn1C(=O)NCc1ccccn1	121 to 123
COC(=O)c1ccc(C(=O)N2Cc3cccn3Cc3ccccc32)cc1	186 to 188
O=C1c2ccccc2C(=O)N1CCCOc1cccc2c(N3CCCCC3)nccc12	146 to 147
CC(=O)c1c(C)oc2c(-n3c(=O)cc(C(F)(F)F)n(C)c3=O)c(F)cc(Cl)c12	138 to 140
CC(=O)c1c[nH]c(-c2ccc(O)cc2)n1	254 to 259
O=C(O)Cc1nc(C(=O)c2ccccc2)no1	143 to 144
CCCOc1ccccc1-c1[nH]c(=O)c(C(N)=O)cc1C	238 to 240
COC(=O)C(c1ccccc1Cl)N1CCc2sc(OC(=O)C(C)(C)C)cc2C1 (stereo not drawn)	118 to 120
Nc1nc(C2CCN(C(=O)Cc3ccc4c(c3)OCO4)CC2)c2ccccc2n1	167 to 168
CC(C)CCc1c(-c2ccc(S(C)(=O)=O)cc2)cnn(-c2ccc(F)cc2)c1=O	151 to 154
CSCCNC(=O)c1cccc(-c2cccc(Oc3cc(Cl)cc(Cl)c3)n2)c1	123 to 124
CC1(C)C=Cc2c(O)cc(-c3cc4ccc(O)cc4o3)cc2O1	> 250
O=Cc1c(Cl)nc2n(c1=O)CCS2	152 to 154
O=C1N(Cc2ccc3ccccc3c2)c2ccccc2N=C2CCCC12Cc1ccc2ccccc2c1 (stereo not drawn)	191 to 193
COC(=O)/C=C/CSc1nc(N)cc(Cl)n1	146 to 149
Cc1noc(NS(=O)(=O)c2ccc(NC(=O)c3ccccc3)cc2-c2ccc(CC(C)C)cc2)c1C	207 to 211
CS(=O)(=O)c1ccc(-n2nc(C(F)(F)F)nc2-c2ccc(Br)cc2)nn1	174 to 181
COc1ccc(C(=O)SC[C@@H](C)C(=O)N2CCC[C@H]2C(=O)O)cc1	140 to 141
CC(C)(C(N)=O)c1cccc(Cn2ccnc2)c1	79 to 82
O=C(/C=C/c1cccc(NS(=O)(=O)c2ccc(C(=O)Nc3ccc(Cl)c(-c4ccccn4)c3)c(Cl)c2)c1)NO	217 to 221
CNC(=O)C(Cc1ccccc1)NC(=O)C(CC(C)C)C(S)CC(=O)OC (stereo not drawn)	169 to 171
CC1CCN(C(=O)c2ccc([C@H]3CC[C@H](NC[C@H](O)COc4ccc(O)c(NS(C)(=O)=O)c4)CC3)cc2)CC1	90 to 100
COc1ccc(-n2nc(OC)cc2-c2ccc(OCCNC(N)=S)cc2)cc1	142

SMILES	melting point [°C]
O=C(O)c1ccc(COCc2csc3nc(C(=O)NCc4ccnc(OCCCc5nc[nH]n5)c4)[nH]c(=O)c23)cc1	206 to 209
COc1cc(CCCC2OC(=O)NC2=O)ccc1OCc1csc(-c2ccccc2)n1 (stereo not drawn)	96 to 97
COC(=O)c1ccc2cc(-c3ccc(C(=O)O)c(C45CC6CC(CC(C6)C4)C5)c3)ccc2c1	239 to 240
OC12CCCCOC1C(OCc1ccccc1)C(OCc1ccccc1)C(OCc1ccccc1)C2OCc1ccccc1 (stereo not drawn)	106
CCCCP(=O)(C(=O)c1c(OC)cccc1OC)C(=O)c1c(OC)cccc1OC	151 to 152
CCCn1nc(SCCCCC(=O)O)c(C(=O)O)c1Cc1cc2c(cc1Cl)OCO2	185
CCCCc1nc2ccccc2n1Cc1ccc(C(=O)O)c(C)c1	191 to 192
Cn1cc(-c2ccccc2)c(=O)c(-c2cccc(Br)c2)c1	172
Cc1cc(-c2ncn3c(C(F)(F)F)cc(-c4ccc(C(F)(F)F)c(OCC(F)(F)F)c4)nc23)ccn1	189
Cc1cc(-c2cccc(C3=Nc4cc(N5CCCC5)c(C#N)cc4NC(=O)C3)c2)on1	267
COc1ccc(-c2csc(NC(=O)C(=O)OCC(C)c3ccccc3)n2)cc1 (stereo not drawn)	150 to 152
CCCCC(O)(COc1ccc(C(=O)O)c(O)c1)c1ccc2c(c1)C(C)(C)CCC2(C)C (stereo not drawn)	142 to 143
CCOc1c(C(=O)NCC(O)CN(CC)CC)n(-c2ccccc2)c2ccccc12 (stereo not drawn)	146 to 148
Cn1nccc1OCc1c(S(C)(=O)=O)ccc(C(=O)C2C(=O)CC(C)(C)CC2=O)c1Cl	82
CN(Cc1ccc(-c2ccc(OCc3nnn[nH]3)c(Br)c2)cc1)C(=O)c1cn(C)c2ccccc12	239
Cn1cc(S(=O)(=O)Cl)c(=O)c2cc(F)ccc21	> 300
CCSc1nc(C(C)(C)C)c[nH]1	116 to 120
CN1CCP(=O)(c2ccccc2)CC1	115 to 116
COc1cc(N2CCOCC2)ccc1Nc1nc(Nc2ccc3c(c2OC)CCCC(=O)N3)ncc1Cl	248 to 249
Cn1cncc1-c1cccc(Nc2ccc3ccccc3n2)c1	60 to 65
Cc1cccc(C)c1N1C(=N)N(c2c(C)cccc2C)C(C)C1C (stereo not drawn)	155 to 157
O=C(O)CCCNC(=O)NCCCCC1CCSS1 (stereo not drawn)	94 to 99
COc1cc(C(C)C)c2c(c1)S(=O)(=O)N(COc1cc(C(F)(F)F)nn1-c1ccc(Cl)cc1)C2=O	160 to 161
CCCOc1ccccc1-c1nc(O)cc(C(=O)NC)n1	165 to 166
COC1(c2cc(OCc3ccc4c(ccc(=O)n4C)c3)cc(C(F)(F)F)c2)CCOCC1	103

SMILES	melting point [°C]
CNC(=O)C(Cc1ccc(OCCc2nc(-c3ccccc3)oc2C)cc1)C(=O)OC (stereo not drawn)	151 to 152
Cc1c(C)c(N2C(=O)c3ccccc3C2=O)c(C)c2c1OC(C)(C)C2	166 to 168
COC(C)(C)C(=O)O[C@H]1C[C@H](O)C=C2C=C[C@H](C)[C@H](CC[C@@H]3C[C@@H](O)CC(=O)O3)[C@H]21	150 to 152
C[C@]1(COc2ccc(N3CCN(Cc4ccc(C(F)(F)F)cc4)CC3)cc2)Cn2cc([N+](=O)[O-])nc2O1	206 to 207
CC1(c2ccc(-c3ccc(Cl)cc3)cc2)CC(=O)NN1 (stereo not drawn)	214 to 215
CC(C)(C)C(=O)C(Cc1ccc(Cl)cc1)n1cncn1 (stereo not drawn)	124
CC(C)(C)c1cc(C(C)(C)C)n(Cc2ccc(CO)cc2)n1	121 to 122
Cc1cc(O)nc(N(C)C#N)n1	290
COc1cc(Nc2nccc(-c3ccc(O)cc3)n2)cc(OC)c1OC	200 to 202
CC(C)(C)c1ccc(-c2ccc(C(=O)CCC(=O)O)cc2)cc1	172 to 174
Clc1cc2c(cc1CN1CCN(CCOc3ccccc3)CC1)OCO2	72 to 76
CCCCN(Cc1ccccc1)C(=O)Nc1cccc(Cl)c1	69 to 70
CC(Sc1ccccc1)C1C=CCC1C(N)=O (stereo not drawn)	109
Oc1ccc(C2CCC(=CCC3OCCO3)CC2)cc1 (stereo not drawn)	126
Nc1nc2ccc(NC(=O)C(=O)N3CCC(Cc4ccccc4)CC3)cc2s1	203
COc1cccc(Cl)c1-c1cc2c(c3c1C(=O)NC3=O)c1cc(O)ccc1n2CCN1CCOCC1	185
CC=Cc1cnn(-c2c(Cl)cc(C(F)(F)F)cc2Cl)n1	35
NCCNC(=O)COc1ccc(C2=NNC(=O)CC2)cc1Cl	168 to 170
CNC(=O)Oc1cc(C)c(NC(=O)C(F)(F)Cl)c(C)c1	163 to 165
COc1ccc(C2(C#Cc3cccc(-c4nc(C)no4)c3)CCCC(=O)C2)cc1OC1CCCC1 (stereo not drawn)	122 to 123
COC(=O)c1cc([N+](=O)[O-])cc([N+](=O)[O-])c1SCc1ccccc1	113 to 114
C/C(=C\c1ccncc1)c1ccc2c(c1)C(C)(C)CCC2(C)C	84 to 85
CC1(CNC(=O)CCl)OCCO1	128 to 130
